Test results as given in ChEMBL document CHEMBL1681665, “3-amido-4-anilinocinnolines as a novel class of CSF-1R inhibitor” (Bioorg Med Chem Lett, 2011).
≈ marks a conversion by molar mass, not a printed value. Where “and” joins values, the source holds several entries; their conditions need not be identical. Identical values can stand only once.

How the values were obtained:
[1] = Aqueous solubility of the compound; conditions: aqueous medium
[2] = test system: NIH3T3; assay: Antiproliferative activity against mouse 3T3 cells expressing human CSF1R after 72 hrs by Celltiter assay; assay type: functional
[3] = Fraction unbound in plasma
[4] = molecular target: Mast/stem cell growth factor receptor Kit (Homo sapiens) (UniProt P10721); assay: Inhibition of c-Kit at 1 uM
[5] = molecular target: Ribosomal protein S6 kinase alpha-1 (Homo sapiens) (UniProt Q15418); assay: Inhibition of Rsk1 at 1 uM
[6] = molecular target: Macrophage colony-stimulating factor 1 receptor (Homo sapiens) (UniProt P07333); assay: Inhibition of CSF1R at 1 uM
[7] = molecular target: Macrophage colony-stimulating factor 1 receptor (Homo sapiens) (UniProt P07333); assay: Inhibition of CSF1R at 0.1 uM
[8] = molecular target: Maternal embryonic leucine zipper kinase (Homo sapiens) (UniProt Q14680); assay: Inhibition of MELK at 0.1 uM
[9] = molecular target: Ribosomal protein S6 kinase alpha-1 (Homo sapiens) (UniProt Q15418); assay: Inhibition of Rsk1 at 0.1 uM
[10] = molecular target: T1, NUAK family SNF1-like kinase 1 (Homo sapiens) (UniProt O60285); assay: Inhibition of ARK5 at 0.1 uM
T1 sequence (whole entry): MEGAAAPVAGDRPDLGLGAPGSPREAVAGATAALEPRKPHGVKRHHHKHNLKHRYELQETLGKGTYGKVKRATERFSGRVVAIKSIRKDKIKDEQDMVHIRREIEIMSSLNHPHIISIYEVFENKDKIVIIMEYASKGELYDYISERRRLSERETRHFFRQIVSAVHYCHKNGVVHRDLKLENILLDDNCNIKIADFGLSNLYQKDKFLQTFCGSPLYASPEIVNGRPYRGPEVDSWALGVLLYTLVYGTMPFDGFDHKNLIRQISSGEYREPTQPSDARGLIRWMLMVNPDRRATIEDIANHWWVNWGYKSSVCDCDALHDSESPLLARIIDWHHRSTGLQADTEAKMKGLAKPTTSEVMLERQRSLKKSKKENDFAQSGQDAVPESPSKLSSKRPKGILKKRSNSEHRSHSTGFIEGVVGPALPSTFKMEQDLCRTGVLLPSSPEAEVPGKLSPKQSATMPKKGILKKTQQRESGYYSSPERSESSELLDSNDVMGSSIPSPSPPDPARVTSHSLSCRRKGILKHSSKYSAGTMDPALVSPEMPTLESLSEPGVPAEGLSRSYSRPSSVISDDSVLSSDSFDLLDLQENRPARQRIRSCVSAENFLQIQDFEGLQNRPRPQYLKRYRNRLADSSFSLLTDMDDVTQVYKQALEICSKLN

[11] = molecular target: Mast/stem cell growth factor receptor Kit (Homo sapiens) (UniProt P10721); assay: Inhibition of c-Kit at 0.1 uM
[12] = molecular target: T1, NUAK family SNF1-like kinase 1 (Homo sapiens); assay: Inhibition of ARK5 at 1 uM
[13] = molecular target: Maternal embryonic leucine zipper kinase (Homo sapiens) (UniProt Q14680); assay: Inhibition of MELK at 1 uM
[14] = Volume of distribution at steady state in rat at 3 mg/kg, iv and 10 mg/kg, po; assay type: ADME, organism-based; conditions: in vivo, read-out: Vdss
[15] = Half life in dog at 3 mg/kg, iv and 5 mg/kg, po; assay type: ADME, organism-based, Canis lupus familiaris; conditions: in vivo
[16] = Volume of distribution at steady state in dog at 3 mg/kg, iv and 5 mg/kg, po; assay type: ADME, organism-based, Canis lupus familiaris; conditions: in vivo, read-out: Vdss
[17] = Volume of distribution at steady state in mouse at 3 mg/kg, iv and 10 mg/kg, po; assay type: ADME, organism-based; conditions: in vivo, read-out: Vdss
[18] = Half life in rat at 3 mg/kg, iv and 10 mg/kg, po; assay type: ADME, organism-based; conditions: in vivo
[19] = Half life in mouse at 3 mg/kg, iv and 10 mg/kg, po; assay type: ADME, organism-based; conditions: in vivo
[20] = Clearance in rat at 3 mg/kg, iv and 10 mg/kg, po; assay type: ADME, organism-based; conditions: in vivo
[21] = Bioavailability in dog at 3 mg/kg, iv and 5 mg/kg, po; assay type: ADME, organism-based, Canis lupus familiaris; conditions: in vivo
[22] = Clearance in dog at 3 mg/kg, iv and 5 mg/kg, po; assay type: ADME, organism-based, Canis lupus familiaris; conditions: in vivo
[23] = Bioavailability in mouse at 3 mg/kg, iv and 10 mg/kg, po; assay type: ADME, organism-based; conditions: in vivo
[24] = Bioavailability in rat at 3 mg/kg, iv and 10 mg/kg, po; assay type: ADME, organism-based; conditions: in vivo
[25] = Clearance in mouse at 3 mg/kg, iv and 10 mg/kg, po; assay type: ADME, organism-based; conditions: in vivo

Maternal embryonic leucine zipper kinase (Homo sapiens), sequence (Q14680 whole entry, looked up): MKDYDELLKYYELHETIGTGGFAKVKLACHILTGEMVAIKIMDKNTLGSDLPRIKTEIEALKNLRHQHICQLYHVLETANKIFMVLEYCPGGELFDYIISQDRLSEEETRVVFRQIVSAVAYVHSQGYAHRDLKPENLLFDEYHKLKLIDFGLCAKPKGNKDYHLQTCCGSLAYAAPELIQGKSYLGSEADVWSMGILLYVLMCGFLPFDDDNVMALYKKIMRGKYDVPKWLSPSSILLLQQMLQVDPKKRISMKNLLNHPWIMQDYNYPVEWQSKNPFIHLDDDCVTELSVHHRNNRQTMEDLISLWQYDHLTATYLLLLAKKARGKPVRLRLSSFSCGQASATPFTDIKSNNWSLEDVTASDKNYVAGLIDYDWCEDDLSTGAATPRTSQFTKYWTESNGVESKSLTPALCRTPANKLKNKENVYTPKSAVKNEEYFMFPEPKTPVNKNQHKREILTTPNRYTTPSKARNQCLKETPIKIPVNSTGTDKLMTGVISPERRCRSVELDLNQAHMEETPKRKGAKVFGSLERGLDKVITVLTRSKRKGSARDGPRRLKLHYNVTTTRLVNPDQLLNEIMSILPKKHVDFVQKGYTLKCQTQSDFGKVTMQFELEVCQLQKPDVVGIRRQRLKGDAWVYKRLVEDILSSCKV
Ribosomal protein S6 kinase alpha-1 (Homo sapiens), sequence (Q15418 whole entry): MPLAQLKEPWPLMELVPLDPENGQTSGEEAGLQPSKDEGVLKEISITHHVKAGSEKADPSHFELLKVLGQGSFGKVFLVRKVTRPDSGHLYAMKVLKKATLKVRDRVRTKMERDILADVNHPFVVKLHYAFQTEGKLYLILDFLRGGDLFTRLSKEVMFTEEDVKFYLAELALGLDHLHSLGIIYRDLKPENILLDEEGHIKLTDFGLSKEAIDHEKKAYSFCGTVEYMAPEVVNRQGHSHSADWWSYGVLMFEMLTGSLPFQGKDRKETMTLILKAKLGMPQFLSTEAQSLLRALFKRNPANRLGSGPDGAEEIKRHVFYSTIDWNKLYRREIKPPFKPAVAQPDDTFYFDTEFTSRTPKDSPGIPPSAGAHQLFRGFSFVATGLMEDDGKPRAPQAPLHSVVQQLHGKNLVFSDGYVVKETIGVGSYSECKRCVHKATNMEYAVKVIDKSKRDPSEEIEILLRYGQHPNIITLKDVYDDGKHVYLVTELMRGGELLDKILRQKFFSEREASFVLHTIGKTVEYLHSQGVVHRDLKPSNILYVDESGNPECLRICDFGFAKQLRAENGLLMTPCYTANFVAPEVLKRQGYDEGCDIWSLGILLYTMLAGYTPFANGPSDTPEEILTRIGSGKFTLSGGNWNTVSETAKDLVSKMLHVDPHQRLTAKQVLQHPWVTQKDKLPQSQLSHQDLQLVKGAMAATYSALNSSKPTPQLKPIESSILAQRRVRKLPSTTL
Macrophage colony-stimulating factor 1 receptor (Homo sapiens), sequence (P07333 whole entry): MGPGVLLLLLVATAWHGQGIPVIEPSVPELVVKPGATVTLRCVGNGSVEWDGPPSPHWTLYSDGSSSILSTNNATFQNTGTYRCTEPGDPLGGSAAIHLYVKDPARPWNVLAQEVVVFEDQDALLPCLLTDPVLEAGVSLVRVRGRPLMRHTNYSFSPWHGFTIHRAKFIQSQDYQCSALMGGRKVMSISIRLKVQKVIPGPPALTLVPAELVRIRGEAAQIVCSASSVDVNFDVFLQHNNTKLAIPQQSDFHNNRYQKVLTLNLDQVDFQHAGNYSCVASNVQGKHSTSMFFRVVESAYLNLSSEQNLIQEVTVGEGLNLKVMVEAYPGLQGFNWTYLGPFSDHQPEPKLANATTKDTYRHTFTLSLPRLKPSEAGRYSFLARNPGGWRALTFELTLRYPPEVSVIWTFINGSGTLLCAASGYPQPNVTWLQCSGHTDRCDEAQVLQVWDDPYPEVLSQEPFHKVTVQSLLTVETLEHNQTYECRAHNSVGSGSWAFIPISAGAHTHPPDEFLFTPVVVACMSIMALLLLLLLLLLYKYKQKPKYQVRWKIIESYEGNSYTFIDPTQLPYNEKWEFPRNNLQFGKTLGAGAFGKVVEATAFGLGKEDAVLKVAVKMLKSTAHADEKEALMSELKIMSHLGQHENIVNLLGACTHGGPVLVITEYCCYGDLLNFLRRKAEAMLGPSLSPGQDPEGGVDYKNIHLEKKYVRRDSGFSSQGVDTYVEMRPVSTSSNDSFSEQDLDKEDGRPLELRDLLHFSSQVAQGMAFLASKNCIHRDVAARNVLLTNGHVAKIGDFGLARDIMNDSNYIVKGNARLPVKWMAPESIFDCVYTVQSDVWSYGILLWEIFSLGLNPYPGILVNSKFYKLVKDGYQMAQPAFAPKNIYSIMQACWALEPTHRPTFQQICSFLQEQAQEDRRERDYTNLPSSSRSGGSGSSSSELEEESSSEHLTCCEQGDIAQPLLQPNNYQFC
Mast/stem cell growth factor receptor Kit (Homo sapiens), sequence (P10721 whole entry): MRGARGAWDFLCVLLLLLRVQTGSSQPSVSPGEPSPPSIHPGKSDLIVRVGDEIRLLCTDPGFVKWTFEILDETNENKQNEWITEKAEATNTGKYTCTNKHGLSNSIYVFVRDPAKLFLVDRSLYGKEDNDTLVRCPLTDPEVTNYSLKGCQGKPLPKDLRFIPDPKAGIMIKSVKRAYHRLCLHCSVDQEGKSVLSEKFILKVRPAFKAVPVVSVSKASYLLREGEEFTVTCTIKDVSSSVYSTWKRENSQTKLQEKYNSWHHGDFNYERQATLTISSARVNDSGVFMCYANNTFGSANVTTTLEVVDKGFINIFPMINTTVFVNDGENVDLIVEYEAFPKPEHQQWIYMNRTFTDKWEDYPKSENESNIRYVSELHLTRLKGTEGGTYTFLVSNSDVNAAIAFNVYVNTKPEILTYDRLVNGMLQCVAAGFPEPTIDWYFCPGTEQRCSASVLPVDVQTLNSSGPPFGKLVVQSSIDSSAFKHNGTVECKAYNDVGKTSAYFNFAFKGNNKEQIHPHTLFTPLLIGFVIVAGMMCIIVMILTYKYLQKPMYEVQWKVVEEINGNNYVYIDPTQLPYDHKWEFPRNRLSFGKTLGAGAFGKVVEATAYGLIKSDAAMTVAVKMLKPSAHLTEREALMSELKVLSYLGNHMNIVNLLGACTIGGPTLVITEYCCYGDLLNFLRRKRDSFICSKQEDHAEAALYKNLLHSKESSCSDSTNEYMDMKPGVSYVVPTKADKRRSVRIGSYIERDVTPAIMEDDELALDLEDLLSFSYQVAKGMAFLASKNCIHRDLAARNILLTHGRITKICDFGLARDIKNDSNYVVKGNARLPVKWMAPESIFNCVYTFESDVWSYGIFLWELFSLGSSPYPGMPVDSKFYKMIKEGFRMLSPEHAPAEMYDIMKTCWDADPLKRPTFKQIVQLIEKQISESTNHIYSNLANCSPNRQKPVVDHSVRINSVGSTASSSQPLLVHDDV

SMILES	solubility [1]	fraction unbound [3]	Activity [2]	other results
COc1cc2nnc(C(N)=O)c(Nc3cccc(Cl)c3F)c2cc1OC	< 1 µM		0.08 µM and 0.12 µM	
COc1cc2nnc(C(N)=O)c(Nc3cc(C)ccc3F)c2cc1OC	< 1 µM		0.2 µM and 0.21 µM	
COc1cc2nnc(C(N)=O)c(Nc3ccc(F)cc3F)c2cc1OC	3 µM (≈ 1.08 µg/mL)		0.16 µM and 0.4 µM	
COc1cc2nnc(C(N)=O)c(Nc3cccc(Cl)c3F)c2cc1N1CCN(C)CC1	110 µM (≈ 48.9 µg/mL)		0.021 µM	
COc1cc2nnc(C(N)=O)c(Nc3ccc(C)cc3F)c2cc1N1CCN(C)CC1			0.025 µM	
CCOc1cc2nnc(C(N)=O)c(Nc3ccc(C)cc3F)c2cc1N1CCN(C)CC1	27 µM (≈ 11.8 µg/mL)	0.016		Vd [14]: 2.8 L/kg; half-life [15]: 12.6 h; Vd [16]: 1.8 L/kg; Vd [17]: 0.6 L/kg; half-life [18]: 9.7 h; half-life [19]: 0.9 h; clearance [20]: 10 mL/min/kg; bioavailability [21]: 78%; clearance [22]: 2 mL/min/kg; bioavailability [23]: 82%; bioavailability [24]: 90%; clearance [25]: 12 mL/min/kg
COc1cc2nnc(C(N)=O)c(Nc3ccc(C)cc3F)c2cc1OC	< 1 µM		0.11 µM and 0.25 µM	

Further lines, with some results ahead:

solubility [1]	fraction unbound [3]	SMILES	Activity [2]	other results
22 µM (≈ 9.34 µg/mL)		COc1cc2nnc(C(N)=O)c(Nc3cc(C)ccc3F)c2cc1N1CCN(C)CC1	0.057 µM	
18 µM (≈ 8.26 µg/mL)		CCOc1cc2nnc(C(N)=O)c(Nc3cccc(Cl)c3F)c2cc1N1CCN(C)CC1		
10 µM (≈ 4.75 µg/mL)	< 0.017	CCOc1cc2nnc(C(N)=O)c(Nc3cccc(Cl)c3Cl)c2cc1N1CCN(C)CC1		
	0.039	CCOc1cc2nnc(C(N)=O)c(Nc3ccc(F)cc3F)c2cc1N1CCN(C)CC1		inhibition [4]: 90%; inhibition [5]: 44%; inhibition [6]: 95%; inhibition [7]: 100%; inhibition [8]: 15%; inhibition [9]: 7%; inhibition [10]: 23%; inhibition [11]: 35%; inhibition [12]: 78%; inhibition [13]: 41%
290 µM (≈ 124 µg/mL)	0.096	COc1cc2nnc(C(N)=O)c(Nc3ccc(F)cc3F)c2cc1N1CCN(C)CC1		
120 µM (≈ 52.6 µg/mL)	0.11	CCOc1cc2nnc(C(N)=O)c(Nc3cc(C)ccc3F)c2cc1N1CCN(C)CC1	0.04 µM and 0.09 µM	
< 1 µM		COc1cc2nnc(C(N)=O)c(Nc3cccc(Cl)c3Cl)c2cc1OC	0.05 µM and 0.09 µM	
